In US10596094B2, “Compositions and methods for reducing skin pigmentation” (Yale University, priority 2013, dated 2020):

Assays:
[1] = tested on: melanocyte-keratinocyte co-cultures; assay: Fontana-Masson silver stain for melanin in melanocyte-keratinocyte co-cultures; type: cell-based, human; settings: 50 micromolar, 72 h (FIG. 7)
Description: Primary neonatal normal human keratinocytes (NHKs) (Invitrogen, Life Technologies, Grand Island, N.Y.) were seeded at a density of 5×10^5 cells/well into 4-well collagen coated chamber slides (Fisher Scientific, Waltham, Mass.). Cells were maintained in 1 ml of serum-free keratinocyte growth medium (KGM) (Keratinocyte-SFM, Invitrogen) and incubated for 48 h in 5% CO2 incubator. The complete KGM was prepared by adding KGM Singlequots (Lonza). Darkly pigmented human neonatal epidermal melanocytes (HEM-DP) (Invitrogen) were seeded over keratinocytes at 2.5×10^5 cells/well and incubated for 24 h at 37° C. The KGM was replaced with 1 ml of melanocyte growth medium (MGM) (Invitrogen), and the co-cultures were incubated for another 48 hours. The co-cultures were treated with the inhibitors at indicated concentrations in a final volume of 20 microliter/well in triplicate for 72 h. The cells were gently washed with 1× phosphate buffered saline (PBS) and fixed in 4% Paraformaldehyde (PFA) for 20 minutes at room temperature.
Silver staining for melanin was performed according to the instructions provided with the Fontana-Masson staining kit (American MasterTech, Lodi, Calif.). Cells grown in collagen-coated chamber slides were fixed in 4% PFA and rinsed with water for 5 minutes to remove traces of PBS. Slides were then placed in ammonical silver solution followed by incubation in solutions of 0.1% gold chloride, 5% sodium thiosulfate, rinsed in running tap water to remove the staining solution, and dehydrated through 3 changes of fresh absolute alcohol. Cleared slides were rinsed through 3 changes of fresh xylene and coverslips were applied with mounting medium.

[2] = tested on: human melanocyte-keratinocyte co-cultures; assay: EBL/SNA lectin staining of melanocyte-keratinocyte co-cultures; type: cell-based; settings: L-cytidine 25 micromolar, 72 h, vs untreated (FIG. 5)
Description: Primary neonatal normal human keratinocytes (NHKs) (Invitrogen, Life Technologies, Grand Island, N.Y.) were seeded at a density of 5×10^5 cells/well into 4-well collagen coated chamber slides (Fisher Scientific, Waltham, Mass.). Cells were maintained in 1 ml of serum-free keratinocyte growth medium (KGM) (Keratinocyte-SFM, Invitrogen) and incubated for 48 h in 5% CO2 incubator. The complete KGM was prepared by adding KGM Singlequots (Lonza). Darkly pigmented human neonatal epidermal melanocytes (HEM-DP) (Invitrogen) were seeded over keratinocytes at 2.5×10^5 cells/well and incubated for 24 h at 37° C. The KGM was replaced with 1 ml of melanocyte growth medium (MGM) (Invitrogen), and the co-cultures were incubated for another 48 hours. The co-cultures were treated with the inhibitors at indicated concentrations in a final volume of 20 microliter/well in triplicate for 72 h. The cells were gently washed with 1× phosphate buffered saline (PBS) and fixed in 4% Paraformaldehyde (PFA) for 20 minutes at room temperature. […] The slides were air dried and mounted on cover slips and the images were captured in tiff format using fluorescence microscope (Nikon) and analyzed.

[3] = target: EBL/SNA (Sambucus nigra, UniProt Q41358); settings: Shibuya et al, 1987; Kaku et al, 2007; cited from earlier work
[4] = tested on: human melanocyte-keratinocyte co-cultures; assay: Melanin assay (solubilized melanin, spectrophotometry) in melanocyte-keratinocyte co-cultures; type: cell-based; settings: for Minimal concentration for >80% inhibition of melanin content: single agents, 72 h, data from FIG. 8A
Description: Cells were plated on 24-well plates at 2×10^5 cells/well and treated with various inhibitors in triplicate. Media were replaced with fresh inhibitor-containing media every 24 h. After 72 h, cells were lysed with cell lysis buffer (Invitrogen) containing protease inhibitor cocktail and PMSF (phenylmethyl sulfonyl fluoride) and incubated for 20 minutes on ice. […] From the same samples, the supernatants were saved for measurement of dopa oxidase activity and the pellets were evaluated for melanin content.
Melanin was extracted following a previously described procedure (Ni-Komatsu, et al., 2005, Pigment Cell Res 18(6),447-453). […] The melaninextracts (100 μl) were transferred to a 96-well plate and total melanin content quantitated with a M5 Spectramax plate reader (490 nm).
Dose response curves were assessed for Bliss Additivity and synergism as described (Fitzgerald et al., 2006, Nat Chem Biol 2:458-466; Ritz, C. & Streibig, J. C. (2005) Bioassay Analysis using R. J. Statist. Software, Vol 12, Issue 5). For comparisons of melanin content and tyrosinase/dopa oxidase activity in treated vs. untreated cultures, P-values were determined by the Welch Two Sample t-test.

Chain of EBL/SNA (Q41358 309-570 limits assumed): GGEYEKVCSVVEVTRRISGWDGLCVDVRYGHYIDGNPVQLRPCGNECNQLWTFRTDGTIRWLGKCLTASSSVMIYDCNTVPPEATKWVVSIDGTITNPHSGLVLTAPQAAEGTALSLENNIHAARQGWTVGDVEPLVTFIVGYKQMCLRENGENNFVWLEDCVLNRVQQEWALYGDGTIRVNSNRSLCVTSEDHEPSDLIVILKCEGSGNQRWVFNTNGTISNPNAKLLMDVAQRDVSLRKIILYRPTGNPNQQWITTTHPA
Chain of EBL/SNA (Q41358 29-289 partner limits assumed): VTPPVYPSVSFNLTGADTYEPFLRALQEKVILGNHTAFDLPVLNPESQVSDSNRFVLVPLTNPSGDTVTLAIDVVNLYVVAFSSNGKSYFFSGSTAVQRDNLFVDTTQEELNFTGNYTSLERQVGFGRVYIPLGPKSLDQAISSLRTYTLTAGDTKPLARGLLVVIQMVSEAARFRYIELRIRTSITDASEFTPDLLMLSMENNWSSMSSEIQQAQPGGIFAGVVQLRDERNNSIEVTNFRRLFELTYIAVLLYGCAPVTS

| Molecule | melanin content (Fontana-Masson silver staining) [1] | EBL staining [2] | inhibition of EBL-mediated precipitation of glycophorin [3] | melanin content compared to untreated cultures ([4]; 50 micromolar, 72 h (FIG. 6)) | Minimal concentration for >80% inhibition of melanin content [4] [µM] |
| --- | --- | --- | --- | --- | --- |
| Nc1ccn([C@@H]2O[C@H](CO)[C@@H](O)[C@H]2O)c(=O)n1 [cytidine] | reduced melanin content | markedly reduced | – | – | – |
| Neu5Ac(α2,3)Gal(β1-4)Glc [3′-SL] | reduced melanin content | – | poor inhibitor | strongest reduction of the three | 30 |
| Neu5Ac(α2,6)Gal(β1-4)Glc [6′-SL] | reduced melanin content | – | strong inhibitor | – | 30 |
